Data set [1] is described as follows: biodistribution study in the mouse (Example 22). The settings on record: souris swiss femelles, injection intraveineuse. The data set is classed as in vivo, souris. How it is done:
L'étude de la biodistribution des radioligands chez la souris, permet d'apprécier l'intensité relative de la fixation cardiaque de la molécule et son évolution dans le temps.
Après marquage à l'iode 123 et purification par CLHP 20µCi environ de produit sont mis en solution dans 5 ml d'une solution : éthanol 20%-sérum physiologique 80%. Après injection intraveineuse de 25 µl de cette solution dans la queue de souris vigiles (souris swiss femelles de 20 à 25 g), celles-ci (5 à chaque fois) sont sacrifiées à différents temps après l'injection. On mesure pour chaque souris les activités cardiaques, hépatique, rénale et pulmonaire. Les résultats sont exprimés en pourcentage de la dose injectée par gramme d'organe.
Le CGP12177 étant la référence, un lot de souris a été étudié après injection de CGP 12177 marqué au tritium.

Data set [2] in a line: octanol-water partition coefficient at room temperature. The data set is classed as physicochemical. The conditions noted are these: pH 7.
Data set [3] relates to récepteurs β adrénergiques. As to the kind of experiment: isolated perfused rat heart (Langendorff), antagonism of isoprenaline on dP/dt max. The settings on record: for DP/dt max: n=6. How it is done: Dans cet exemple, on teste la propriété pharmacologique antagoniste du composé 6 vis-à-vis des récepteurs β adrénergiques.
L'expérience est conduite sur coeur de rat isolé et perfusé selon la technique de Langendorff.
Après une préperfusion de 25 minutes avec une solution de Krebs-Henseleit, le coeur est perfusé avec de l'isoprénaline à la concentration de 10^-8M pendant 10 minutes; puis avec une solution d'isoprénaline à 10^-8M associée à la molécule à tester à la concentration de 10^-6M.
Si la molécule à tester diminue la dP/dt max en présence d'isoprénaline, on pourra affirmer que cette molécule se comporte comme un antagoniste de l'isoprénaline vis-à-vis des récepteurs β adrénergiques.

[4] abbreviates: Isoprénaline + molécule (10^e+8 min), isoprénaline 10^-8M, test molecule 10^-6M.

Here are results for four compounds from EP0767778B1, “1-PHENOXY-3-N-ALKYLAMINOPROPAN-2-OL HALOGEN DERIVATIVES USEFUL AS MYOCARDIAL beta [sequence] RECEPTOR MARKERS AND AS beta-BLOCKING AGENTS” (CIS BIO INTERNATIONAL, priority 1994, dated 1996).

Regarding “1-[4-(2-iodoéthylènamido)phénoxy]-3-isopropylaminopropan-2-ol [composé 15]”, the “Biodistribution Foie” value is recorded as 6 ± 0,75 pourcentage de la dose injectée par gramme d'organe in data set [1] (2'); 3,6 ± 0,4 pourcentage de la dose injectée par gramme d'organe in data set [1] (5'); 2,6 ± 0,2 pourcentage de la dose injectée par gramme d'organe in data set [1] (10'); 4,8 ± 0,2 pourcentage de la dose injectée par gramme d'organe in data set [1] (15"); 2,6 ± 0,2 pourcentage de la dose injectée par gramme d'organe in data set [1] (15'); 2,1 ± 0,1 pourcentage de la dose injectée par gramme d'organe in data set [1] (30'). For the same compound, the “Biodistribution Rein” value in data set [1] (2') is 20,9 ± 2,5 pourcentage de la dose injectée par gramme d'organe; in data set [1] (5'), 13,3 ± 0,6 pourcentage de la dose injectée par gramme d'organe; in data set [1] (10') it was 7,2 ± 0,4 pourcentage de la dose injectée par gramme d'organe; in data set [1] (15"), 17,1 ± 1,2 pourcentage de la dose injectée par gramme d'organe; in data set [1] (15'), 6,3 ± 1 pourcentage de la dose injectée par gramme d'organe; in data set [1] (30'), 4,8 ± 0,6 pourcentage de la dose injectée par gramme d'organe. Moreover, the “Biodistribution Coeur” value in data set [1] (15") is recorded as 16,2 ± 2,1 pourcentage de la dose injectée par gramme d'organe; in data set [1] (15'), 3,2 ± 0,2 pourcentage de la dose injectée par gramme d'organe; in data set [1] (30'), 2,2 ± 0,15 pourcentage de la dose injectée par gramme d'organe; in data set [1] (2 min.) it was 14,4 ± 0,9 pourcentage de la dose injectée par gramme d'organe; in data set [1] (5 min.), 8,4 ± 0,3 pourcentage de la dose injectée par gramme d'organe; in data set [1] (10 min.) it was 3,6 ± 0,7 pourcentage de la dose injectée par gramme d'organe. In addition, the “Biodistribution Poumon” value in data set [1] (15") was 55 ± 12 pourcentage de la dose injectée par gramme d'organe; in data set [1] (15') it was 11,2 ± 2,2 pourcentage de la dose injectée par gramme d'organe; in data set [1] (30') it was 8,4 ± 0,8 pourcentage de la dose injectée par gramme d'organe; in data set [1] (2 min.) it was 34 ± 6 pourcentage de la dose injectée par gramme d'organe; in data set [1] (5 min.), 25 ± 6 pourcentage de la dose injectée par gramme d'organe; in data set [1] (10 min.), 13,2 ± 3,1 pourcentage de la dose injectée par gramme d'organe. The “Coefficient de partage octanol-eau à pH 7” value in data set [2] is 2,91.
For “1-{4-[2-(2-iodoéthoxy) éthoxy]phénoxy}-3-isopropyl-aminopropan-2-ol [composé 16]”, the “Biodistribution Foie” value in data set [1] (2') was 3,6 ± 0,5 pourcentage de la dose injectée par gramme d'organe; in data set [1] (5'), 7,2 ± 1,6 pourcentage de la dose injectée par gramme d'organe; in data set [1] (10'), 7,8 ± 1,6 pourcentage de la dose injectée par gramme d'organe; in data set [1] (15"), 1,5 ± 0,8 pourcentage de la dose injectée par gramme d'organe; in data set [1] (15') it was 7,9 ± 0,5 pourcentage de la dose injectée par gramme d'organe. Further, the “Biodistribution Rein” value is 16,4 ± 3,6 pourcentage de la dose injectée par gramme d'organe in data set [1] (2'); 19,5 ± 5 pourcentage de la dose injectée par gramme d'organe in data set [1] (5'); 15,4 ± 2 pourcentage de la dose injectée par gramme d'organe in data set [1] (10'); 4 ± 2,6 pourcentage de la dose injectée par gramme d'organe in data set [1] (15"); 14 ± 2,6 pourcentage de la dose injectée par gramme d'organe in data set [1] (15'). In addition, the “Biodistribution Coeur” value in data set [1] (15") is on record as 20,4 ± 3,8 pourcentage de la dose injectée par gramme d'organe; in data set [1] (15'), 3,6 ± 0,4 pourcentage de la dose injectée par gramme d'organe; in data set [1] (2 min.), 13 ± 1,3 pourcentage de la dose injectée par gramme d'organe; in data set [1] (5 min.) it was 7 ± 0,7 pourcentage de la dose injectée par gramme d'organe; in data set [1] (10 min.) it was 4,1 ± 0,4 pourcentage de la dose injectée par gramme d'organe. In addition, the “Biodistribution Poumon” value in data set [1] (15") is 112 ± 37 pourcentage de la dose injectée par gramme d'organe; in data set [1] (15'), 29,6 ± 4 pourcentage de la dose injectée par gramme d'organe; in data set [1] (2 min.) it was 73,3 ± 10 pourcentage de la dose injectée par gramme d'organe; in data set [1] (5 min.) it was 52,7 ± 4 pourcentage de la dose injectée par gramme d'organe; in data set [1] (10 min.) it was 38,9 ± 5,3 pourcentage de la dose injectée par gramme d'organe. Also, the “Coefficient de partage octanol-eau à pH 7” value in data set [2] is recorded as 6,7.
In the case of `CC(C)NCC(O)c1ccc(O)c(O)c1` (stereo not drawn) [Isoprenaline], the DP/dt max stood at 2535±1233 mmHg/min in data set [3] (Isoprénaline (10^e min), isoprénaline 10^-8M alone) and 2398±1088 mmHg/min in data set [3] (setting [4]). In data set [3] (isoprénaline seule 10^-8M), the “augmentation de la dP/dt max par rapport à la préperfusion” value came to 254%.
Consider `CC(C)NCC(O)COc1cccc2ccccc12` (stereo not drawn) [propranolol], for which the DP/dt max in data set [3] (setting [4]) is 814±240 mmHg/min. The “effect on the action of isoprénaline on dP/dt max” value in data set [3] (isoprénaline 10^-8M + molecule 10^-6M) was “revient à la valeur basale”.
